The supplement of paper PMC10307832

Columns and labels:
Test in all cases: relative viability (nuclei count vs DMSO), 5 days (fraction); higher = more cells survive
[1] = compound: C1=CC=C2C(=C1)C=CC(=C2SSC3=C(C=CC4=CC=CC=C43)O)O [IPA-3] + CS(=O)(=O)CCNCc1ccc(-c2ccc3ncnc(Nc4ccc(OCc5cccc(F)c5)c(Cl)c4)c3c2)o1 [Lapatinib] (partner 2 µM)
Procedure, shortened: (§1)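 For relative viability, nuclei counts in treated wells were divided by those in vehicle wells. Lung cancer cell lines had been pin-tool dosed in 1536-well plates the day after seeding and cultured for 5 days, then fixed and stained in one step (final 0.05% Triton X-100, 1% formaldehyde, 1 ug/ml Hoechst) and imaged at 4×. Doses were one drug alone or a fixed anchor-drug dose plus five library-drug doses (not always all listed) in √10 steps, and values are duplicate-plate medians.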

[2] = compound: Cc1ccc(-n2nc(C(C)(C)C)cc2NC(=O)Nc2ccc(OCCN3CCOCC3)c3ccccc23)cc1 [Doramapimod] + O=C(CCCCCCC(=O)Nc1ccccc1)NO [Vorinostat] (partner 1 µM)
Procedure, shortened: as §1

[3] = compound: Cn1c(Nc2ccc(C(F)(F)F)cc2)nc2cc(Oc3ccnc(-c4ncc(C(F)(F)F)[nH]4)c3)ccc21 [RAF265] + Cc1nc(Nc2ncc(C(=O)Nc3c(C)cccc3Cl)s2)cc(N2CCN(CCO)CC2)n1 [Dasatinib] (partner 0.075 µM)
Procedure, shortened: as §1

[4] = compound: C1=CC=C2C(=C1)C=CC(=C2SSC3=C(C=CC4=CC=CC=C43)O)O [IPA-3] + CC1(C)CCC(c2ccc(Cl)cc2)=C(CN2CCN(c3ccc(C(=O)NS(=O)(=O)c4ccc(N[C@H](CCN5CCOCC5)CSc5ccccc5)c(S(=O)(=O)C(F)(F)F)c4)cc3)CC2)C1 [Navitoclax] (partner 0.5 µM)
Procedure, shortened: as §1

| Cell Line | relative viability ([1]; first compound 0.2 µM) | relative viability ([1]; first compound 0.6325 µM) | relative viability ([1]; first compound 2 µM) | relative viability ([1]; first compound 6.325 µM) | relative viability ([1]; first compound 20 µM) | relative viability ([2]; first compound 0.02 µM) | relative viability ([2]; first compound 0.06325 µM) | relative viability ([2]; first compound 0.2 µM) | relative viability ([2]; first compound 0.6325 µM) | relative viability ([2]; first compound 2 µM) | relative viability ([3]; first compound 0.01 µM) | relative viability ([3]; first compound 0.03162 µM) | relative viability ([3]; first compound 0.1 µM) | relative viability ([3]; first compound 0.3162 µM) | relative viability ([3]; first compound 1 µM) | relative viability ([4]; first compound 0.2 µM) | relative viability ([4]; first compound 0.6325 µM) | relative viability ([4]; first compound 2 µM) | relative viability ([4]; first compound 6.325 µM) | relative viability ([4]; first compound 20 µM) |
| --- | --- | --- | --- | --- | --- | --- | --- | --- | --- | --- | --- | --- | --- | --- | --- | --- | --- | --- | --- | --- |
| NCI-H2347 | 1.08 | 0.938 | 0.99 | 0.945 | 0.935 | 0.652 | 0.555 | 0.569 | 0.644 | 0.538 | 0.358 | 0.331 | 0.341 | 0.213 | 0.237 | 0.962 | 0.792 | 0.633 | 0.88 | 0.988 |
| NCI-H2405 | 1.15 | 1 | 0.921 | 1.17 | 1.16 | 1.1 | 1.12 | 1.22 | 0.958 | 1.02 | 0.242 | 0.194 | 0.191 | 0.159 | 0.193 | 0.993 | 0.989 | 0.929 | 0.892 | 0.984 |
| NCI-H3122 | 1.02 | 0.996 | 0.993 | 1.09 | 0.946 | 1.13 | 1.07 | 1.12 | 0.849 | 0.859 | 0.463 | 0.937 | 0.904 | 0.669 | 0.521 | 0.994 | 0.998 | 1.01 | 1.12 | 1.02 |
| PC-3 [JPC-3] | 0.494 | 0.467 | 0.422 | 0.504 | 0.457 | 0.967 | 1.39 | 1.22 | 0.564 | 0.744 | 0.985 | 0.908 | 1 |  | 0.696 | 0.813 | 0.691 | 0.823 | 0.803 | 0.842 |
| PC-14 | 0.419 | 0.331 | 0.328 | 0.328 | 0.407 | 0.802 | 0.751 | 0.727 | 0.898 | 0.578 | 0.262 | 0.274 | 0.241 |  | 0.0905 | 1.09 | 1.03 | 0.994 | 0.988 | 0.974 |
| RERF-LC-KJ | 1 | 0.828 | 0.764 | 0.801 | 0.897 | 0.785 | 0.715 | 0.741 | 0.427 | 0.729 | 0.822 | 0.735 | 0.658 | 0.456 | 0.4 | 1.53 | 0.879 | 1.1 | 0.877 | 1.06 |
| SK-LU-1 | 1.18 | 0.744 | 1.01 | 0.756 | 0.692 | 0.944 | 0.75 | 0.824 | 0.933 | 0.867 | 0.177 | 0.177 | 0.166 | 0.181 | 0.137 | 1.39 |  | 0.786 | 0.878 | 0.971 |
| SK-MES-1 | 0.524 | 0.431 | 0.487 | 0.423 | 0.449 | 1.21 | 1.09 | 1.07 | 1.12 | 1.11 | 0.482 | 0.203 | 0.164 | 0.171 | 0.157 | 1.26 | 1.12 | 1.3 |  | 1.04 |
| SW 1573 | 1.17 | 1.09 | 1.03 | 1.06 | 1.06 | 0.9 | 0.549 | 0.581 | 0.791 | 0.539 | 0.54 | 0.442 | 0.31 | 0.29 | 0.21 | 0.99 | 0.67 | 1.21 | 1.09 | 1.13 |
